Entries after “also recorded” stand apart in the source; their conditions may differ. Like-named read-outs stand apart in the source and are kept apart here.
Experiments:
C57BL/6J mice [1] = assay: Head twitch response (HTR) in mice; format: in vivo; conditions: first 30 min after injection (i.p.)
Procedure: (§1) Open field: this apparatus has been described in the literature (Acta Crystallographica Section D, 2010, 66:486-501). Mice were placed into the open field for 30 min, injected with vehicle, (+)-LSD-(+)-tartrate (NIDA Drug Supply Program, Bethesda, MID), 38, or 33 (i.p.), and returned immediately to the open field for 30 min. Locomotion was monitored using Fusion Integra software (Omnitech, Columbus, OH).
Head twitch response: HTRs were filmed in the open field and were scored following drug administration for 30 min as described in the literature (Acta Crystallographica Section D, 2019, 75:861-877).
(§2) Statistics: Statistical analyses were performed with IBM SPSS Statistics 27 programs (IBM, Chicago, IL). The data are presented as means and standard errors of the mean. No sex effects were detected. One- or two-way ANOVA or repeated measures ANOVA (RMANOVA) were used, followed by Bonferroni corrected post-hoc analyses. A p<0.05 was considered significant. All behavioral results were plotted using GraphPad Prism.

C57BL/6J mice [2] = assay: Open field locomotion in mice; format: in vivo; conditions: i.p.
Procedure: as §1, §2

5-HT2AR [3] = molecular target: T1, 5-HT2AR (Homo sapiens, UniProt P28223); assay: Calcium flux assay (FLIPR, Fluo-4), 5-HT2AR stable cell line; format: cell-based; conditions: for 5-HT2AR Rmax ± S.E.M: value in parentheses
T1 construct: expressed in transfected cells; host or cells: Flp-In 293 T-Rex (tetracycline inducible)
Procedure: (§3) Stable cell lines for 5-HT2AR, 5-HT2BR and 5-HT2CR generated using the Flp-In 293 T-Rex Tetracycline inducible system (Invitrogen). Tetracycline-induced cells were seeded in 384-well poly-L-lysine plates at a density of 10,000 cells/well in DMEM containing 1% dialyzed FBS at least 16-24 hr before the calcium flux assay. On the day of the assay, the cells were incubated (20 ul/well) for 1 hr at 37° C. with Fluo-4 Direct dye (Invitrogen) reconstituted in FLIPR buffer (1×HBSS, 2.5 mM probenecid, and 20 mM HEPES, pH 7.4). After dye loading, cells were placed in a FLIPR^TETRA fluorescence imaging plate reader (Molecular Dynamics). Drug dilutions were prepared at 3× final concentration in drug buffer (1×HBSS, 20 mM HEPES, 0.1% BSA, 0.01% ascorbic acid, pH 7.4) and aliquoted into 384-well plates and placed in the FLIPR^TETRA for drug stimulation. The fluidics module and plate reader of the FLIPR^TETRA were programmed to read baseline fluorescence for 10s (1 read/s), then 10 ul of drug/well was added and read for 5 min (1 read/s). Fluorescence in each well was normalized to the average of the first 10 reads (i.e., baseline fluorescence). Then, the maximum-fold increase, which occurred within the first 60 s after drug addition, was determined and fold over baseline was plotted as a function of drug concentration. Data were normalized to % 5-HT stimulation and analyzed using “log(agonist) vs. response” in GraphPad Prism 9.0.

5-HT2AR [4] = molecular target: T1, 5-HT2AR; assay: 5-HT2AR binding affinity (Ki), Table 8
5-HT2CR [5] = molecular target: T2, 5-HT2CR (Homo sapiens, UniProt P28335); assay: 5-HT2CR binding affinity (Ki), Table 8
T2 sequence (P28335 33-458): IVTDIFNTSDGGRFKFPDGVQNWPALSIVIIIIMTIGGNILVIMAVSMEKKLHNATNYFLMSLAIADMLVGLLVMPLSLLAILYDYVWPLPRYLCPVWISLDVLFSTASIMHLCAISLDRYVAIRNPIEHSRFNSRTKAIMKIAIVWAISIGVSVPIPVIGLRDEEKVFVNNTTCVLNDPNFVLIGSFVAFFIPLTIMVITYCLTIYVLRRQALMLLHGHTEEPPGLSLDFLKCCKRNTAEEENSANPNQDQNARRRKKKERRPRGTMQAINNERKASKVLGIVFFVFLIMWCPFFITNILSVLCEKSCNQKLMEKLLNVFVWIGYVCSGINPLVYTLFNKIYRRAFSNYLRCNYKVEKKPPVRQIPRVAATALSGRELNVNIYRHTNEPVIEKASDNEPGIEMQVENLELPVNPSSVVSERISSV

5-HT2BR [6] = molecular target: T3, 5-HT2BR (Homo sapiens, UniProt P41595); assay: Calcium flux assay (FLIPR, Fluo-4), 5-HT2BR stable cell line; format: cell-based; conditions: for EC50: read-out: 5-HT2BR EC50; for 5-HT2BR Rmax ± S.E.M: value in parentheses
T3 construct: expressed in transfected cells; host or cells: Flp-In 293 T-Rex (tetracycline inducible)
Procedure: Stable cell lines for 5-HT2AR, 5-HT2BR and 5-HT2CR generated using the Flp-In 293 T-Rex Tetracycline inducible system (Invitrogen). Tetracycline-induced cells were seeded in 384-well poly-L-lysine plates at a density of 10,000 cells/well in DMEM containing 1% dialyzed FBS at least 16-24 hr before the calcium flux assay. On the day of the assay, the cells were incubated (20 ul/well) for 1 hr at 37° C. with Fluo-4 Direct dye (Invitrogen) reconstituted in FLIPR buffer (1×HBSS, 2.5 mM probenecid, and 20 mM HEPES, pH 7.4). After dye loading, cells were placed in a FLIPR^TETRA fluorescence imaging plate reader ([…]). Drug dilutions were prepared at 3× final concentration in drug buffer (1×HBSS, 20 mM HEPES, 0.1% BSA, 0.01% ascorbic acid, pH 7.4) and aliquoted into 384-well plates and placed in the FLIPR^TETRA for drug stimulation. The fluidics module and plate reader of the FLIPR^TETRA were programmed to read baseline fluorescence for 10s (1 read/s), then 10 ul of drug/well was added and read for 5 min (1 read/s). Fluorescence in each well was normalized to the average of the first 10 reads (i.e., baseline fluorescence). Then, the maximum-fold increase, which occurred within the first 60 s after drug addition, was determined and fold over baseline was plotted as a function of drug concentration. Data were normalized to % 5-HT stimulation and analyzed using “log(agonist) vs. response” in GraphPad Prism 9.0.

5-HT2CR [7] = molecular target: T2, 5-HT2CR; assay: Calcium flux assay (FLIPR, Fluo-4), 5-HT2CR stable cell line; format: cell-based; conditions: for 5-HT2CR Rmax ± S.E.M: value in parentheses
Procedure: as §3

[8] = system: wild-type (WT) and vesicular monoamine transporter 2 (VMAT2) heterozygous (HET) mice; assay: Tail suspension test (immobility time) in wild-type and VMAT2 heterozygous mice; format: in vivo; conditions: 30 min after administration; for immobility time during the tail suspension test: compared to vehicle
Procedure: Tail suspension: This test was conducted as described in the literature (Acta Crystallographica Section D, 2010, 66:486-501). […] Immobility times were assessed over 6 min using MedAssociates software.

5-HT2BR [9] = molecular target: T3, 5-HT2BR; assay: 5-HT2BR binding affinity (Ki), Table 8
[10] = bracketed value below EC50, read-out: 5-HT2AR pEC50 ± S.E.M (converted)
[11] = bracketed value below Ki, read-out: 5-HT2AR pKi ± S.E.M (converted)
[12] = bracketed value below Ki, read-out: 5-HT2BR pKi ± S.E.M (converted)
[13] = bracketed value below Ki, read-out: 5-HT2CR pKi ± S.E.M (converted)

T1 sequence (P28223 whole entry): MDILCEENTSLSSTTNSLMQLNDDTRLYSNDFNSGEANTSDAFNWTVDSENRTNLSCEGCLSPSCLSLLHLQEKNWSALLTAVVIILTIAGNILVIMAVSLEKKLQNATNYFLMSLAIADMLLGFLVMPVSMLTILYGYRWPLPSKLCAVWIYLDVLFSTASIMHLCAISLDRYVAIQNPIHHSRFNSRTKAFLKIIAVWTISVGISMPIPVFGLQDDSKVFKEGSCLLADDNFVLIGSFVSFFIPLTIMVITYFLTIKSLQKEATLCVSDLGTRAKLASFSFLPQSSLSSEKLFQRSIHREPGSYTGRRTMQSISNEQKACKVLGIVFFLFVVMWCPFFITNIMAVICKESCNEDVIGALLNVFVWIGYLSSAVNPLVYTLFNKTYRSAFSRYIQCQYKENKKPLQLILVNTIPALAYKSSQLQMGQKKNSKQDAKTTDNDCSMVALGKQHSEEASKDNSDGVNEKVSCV
T3 sequence (P41595 whole entry): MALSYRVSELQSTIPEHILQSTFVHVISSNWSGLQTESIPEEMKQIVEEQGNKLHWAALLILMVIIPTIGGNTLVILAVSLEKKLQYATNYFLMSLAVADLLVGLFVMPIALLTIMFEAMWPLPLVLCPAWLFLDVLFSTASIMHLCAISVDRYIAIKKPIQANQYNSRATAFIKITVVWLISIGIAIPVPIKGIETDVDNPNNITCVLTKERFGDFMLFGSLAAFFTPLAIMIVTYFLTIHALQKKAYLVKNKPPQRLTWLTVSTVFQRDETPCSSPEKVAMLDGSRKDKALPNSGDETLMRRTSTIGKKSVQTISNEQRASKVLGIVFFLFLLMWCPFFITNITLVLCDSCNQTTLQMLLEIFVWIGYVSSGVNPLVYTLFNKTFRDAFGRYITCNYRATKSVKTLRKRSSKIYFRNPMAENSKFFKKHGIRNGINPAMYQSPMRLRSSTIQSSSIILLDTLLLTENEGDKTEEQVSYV

## CCN(CC)C(=O)[C@@H]1C=C2c3cccc4[nH]cc(c34)C[C@H]2N(C)C1 [LSD, reference compound]
C57BL/6J mice [1]; 0.3 mg/kg LSD
  head twitch responses (HTRs): stimulated
C57BL/6J mice [2]; 0.3 mg/kg LSD
  distance travelled in the open field, locomotion post injection (31-60 min): significantly higher

## C[C@@H]1C=C(c2c[nH]c3ncccc23)CN(C)C1 [compound 33, (R)-3-(1,5-dimethyl-1,2,5,6-tetrahydropyridin-3-yl)-1H-pyrrolo[2,3-b]pyridine]
5-HT2AR [3]; [10]
  EC50: 110 nM
5-HT2AR [3]
  5-HT2AR Rmax ± S.E.M: (73.3%
C57BL/6J mice [1]; 1 mg/kg
  head twitch responses (HTRs): neither 38 nor 33 induced substantial HTRs; also recorded: not different from each other
5-HT2AR [4]; read-out: 5-HT2AR Ki
  Ki: 880 nM
5-HT2CR [5]; read-out: 5-HT2CR Ki
  Ki: 480 nM
5-HT2BR [6]
  EC50: 700 nM
  5-HT2BR Rmax ± S.E.M: (50.5%
C57BL/6J mice [2]; 1 mg/kg
  distance travelled in the open field, locomotion post injection (31-60 min): do not enhance locomotion; also recorded: not different from one another
5-HT2CR [7]; read-out: 5-HT2CR EC50
  EC50: 3250 nM
5-HT2CR [7]
  5-HT2CR Rmax ± S.E.M: (51.7%
[8]; 1 mg/kg i.p., p=0.051
  immobility time during the tail suspension test, HET mice versus WTs given the same treatment: less time immobile
[8]; VMAT2 HET mice, 0.5 mg/kg i.p.
  immobility time during the tail suspension test: reduced immobility time significantly
[8]; VMAT2 HET mice, 1 mg/kg i.p., 1 mg/kg
  immobility time during the tail suspension test: restored wild-type levels of mobility; also recorded: reduced immobility time significantly
[8]; WT mice, 0.5 mg/kg i.p.
  immobility time during the tail suspension test: no effects
[8]; WT mice, 1 mg/kg i.p.
  immobility time during the tail suspension test: no effects
5-HT2BR [9]; read-out: 5-HT2BR Ki
  Ki: 440 nM

## Cc1ncc(CCN2CC(c3c[nH]c4ncccc34)=C[C@@H](C)C2)cn1 [compound 40, (R)-3-(5-methyl-1-(2-(2-methylpyrimidin-5-yl)ethyl)-1,2,5,6-tetrahydropyridin-3-yl)-1H-pyrrolo[2,3-b]pyridine]
5-HT2AR [3]
  5-HT2AR EC50: antagonist
5-HT2AR [4]; [11]
  Ki: 398 nM
5-HT2CR [5]; read-out: 5-HT2CR Ki
  Ki: 840 nM
5-HT2BR [6]
  EC50: 3820 nM
  5-HT2BR Rmax ± S.E.M: (54.5%
5-HT2CR [7]
  5-HT2CR EC50: antagonist
5-HT2BR [9]; [12]
  Ki: 3980 nM
5-HT2BR [9]; read-out: 5-HT2BR Ki
  Ki: 4090 nM

## Cc1ncc(CCN2CC(c3c[nH]c4ncccc34)=C[C@H](C)C2)cn1 [compound 41, (S)-3-(5-methyl-1-(2-(2-methylpyrimidin-5-yl)ethyl)-1,2,5,6-tetrahydropyridin-3-yl)-1H-pyrrolo[2,3-b]pyridine]
5-HT2AR [3]
  5-HT2AR EC50: antagonist
5-HT2AR [4]; [11]
  Ki: 25.7 nM
5-HT2AR [4]; read-out: 5-HT2AR Ki
  Ki: 25 nM
5-HT2CR [5]; [13]
  Ki: 28.8 nM
5-HT2CR [5]; read-out: 5-HT2CR Ki
  Ki: 30 nM
5-HT2BR [6]
  5-HT2BR EC50: antagonist
5-HT2CR [7]
  5-HT2CR EC50: antagonist
5-HT2BR [9]; read-out: 5-HT2BR Ki
  Ki: 820 nM

## C[C@@H]1C=C(c2c[nH]c3ncccc23)CN(CC2CC2)C1 [compound 45, (R)-3-(1-(cyclopropylmethyl)-5-methyl-1,2,5,6-tetrahydropyridin-3-yl)-1H-pyrrolo[2,3-b]pyridine]
5-HT2AR [3]; [10]
  EC50: 457 nM
5-HT2AR [3]; read-out: 5-HT2AR EC50
  EC50: 450 nM
5-HT2AR [3]
  5-HT2AR Rmax ± S.E.M: (25.0%
5-HT2AR [4]; [11]
  Ki: 2880 nM
5-HT2AR [4]; read-out: 5-HT2AR Ki
  Ki: 2920 nM
5-HT2CR [5]; read-out: 5-HT2CR Ki
  Ki: 4410 nM
5-HT2BR [6]
  5-HT2BR EC50: antagonist
5-HT2CR [7]
  5-HT2CR EC50: antagonist
5-HT2BR [9]; read-out: 5-HT2BR Ki
  Ki: > 10000 nM

## C[C@H]1C=C(c2c[nH]c3ncccc23)CN(CC2CC2)C1 [compound 46, (S)-3-(1-(cyclopropylmethyl)-5-methyl-1,2,5,6-tetrahydropyridin-3-yl)-1H-pyrrolo[2,3-b]pyridine]
5-HT2AR [3]
  5-HT2AR EC50: antagonist
5-HT2AR [4]; read-out: 5-HT2AR Ki
  Ki: 2440 nM
5-HT2CR [5]; read-out: 5-HT2CR Ki
  Ki: 780 nM
5-HT2BR [6]
  EC50: 1170 nM
  5-HT2BR Rmax ± S.E.M: (43.8%
5-HT2CR [7]
  5-HT2CR EC50: antagonist
5-HT2BR [9]; read-out: 5-HT2BR Ki
  Ki: 2140 nM

## C[C@@H]1C=C(c2c[nH]c3ncccc23)CN(Cc2cnco2)C1 [compound 47, (R)-5-((3-methyl-5-(1H-pyrrolo[2,3-b]pyridin-3-yl)-3,6-dihydropyridin-1(2H)-yl)methyl)oxazole]
5-HT2AR [3]; [10]
  EC50: 977 nM
5-HT2AR [3]; read-out: 5-HT2AR EC50
  EC50: 990 nM
5-HT2AR [3]
  5-HT2AR Rmax ± S.E.M: (68.3%
5-HT2AR [4]; read-out: 5-HT2AR Ki
  Ki: 7190 nM
5-HT2CR [5]; read-out: 5-HT2CR Ki
  Ki: > 10000 nM
5-HT2BR [6]
  EC50: 940 nM
  5-HT2BR Rmax ± S.E.M: (75.8%
5-HT2CR [7]; read-out: 5-HT2CR EC50
  EC50: > 10000 nM
5-HT2BR [9]; read-out: 5-HT2BR Ki
  Ki: > 10000 nM

## C1=C(c2c[nH]c3ncccc23)CNCC1 [compound 49, 3-(1,2,5,6-tetrahydropyridin-3-yl)-1H-pyrrolo[2,3-b]pyridine]
5-HT2AR [3]; [10]
  EC50: 151 nM
5-HT2AR [3]
  5-HT2AR Rmax ± S.E.M: (43.9%
5-HT2AR [4]; [11]
  Ki: 398 nM
5-HT2CR [5]; [13]
  Ki: 288 nM
5-HT2BR [6]
  EC50: 630 nM
  5-HT2BR Rmax ± S.E.M: (34.8%
5-HT2CR [7]; bracketed value below EC50, read-out: 5-HT2CR pEC50 ± S.E.M (converted)
  EC50: 832 nM
5-HT2CR [7]; read-out: 5-HT2CR EC50
  EC50: 820 nM
5-HT2CR [7]
  5-HT2CR Rmax ± S.E.M: (45.9%
5-HT2BR [9]; [12]
  Ki: 257 nM

Source: patent US20230365542A1, “Selective Agonists of 5-HT2A Receptor and Methods of Use” (Yale University, priority 2020, published 2023)
